Experimental data reported in EP4512398A1, “FLURALANER FOR USE IN METHODS OF TREATMENT AND PREVENTION OF SEA LICE INFESTATION IN FISH” (Bimeda Animal Health Limited, priority 2023, dated 2025).

Key:
Atlantic salmon = test: mortality, adverse effects and behaviour of treated salmon in the proof-of-concept trial; type: in vivo
Experimental: (§1) A proof-of-concept experiment was carried out to determine the efficacy of fluralaner as a treatment for L. salmonis in farmed Atlantic salmon. Salmon infected with sea lice were divided evenly into three tanks, 41 fish per tank. Tank A acted as a control and no fluralaner was administered to the salmon, Tank B was given a low dog dose (25 mg/ kg of body weight) treatment and Tank C was given a high dog dose treatment (56 mg/ kg body weight). (See bravecto-epar-product-information attached for dosing rates). The powdered form of the drug was administered by mixing with standard aquaculture salmonid feed using fish oil as a binder. The experiment lasted for one week, between the 4/08/23 and the 11/08/23.
Samples have been retained for histology and residue testing.

L. salmonis = test: proof-of-concept efficacy experiment: fluralaner in feed to sea-lice-infected farmed Atlantic salmon, lice counts; type: in vivo; conditions: for Average lice per fish / Total lice: 15 salmon sampled
Experimental: as §1

[1] = Tank B, 25 mg/ kg of body weight oral in feed, 04/08/2023 (start of experiment, baseline)
[2] = Tank C, 56 mg/ kg body weight oral in feed, 04/08/2023 (start of experiment, baseline)

Cc1cc(C2=NOC(c3cc(Cl)cc(Cl)c3)(C(F)(F)F)C2)ccc1C(=O)NCC(=O)NCC(F)(F)F (stereo not shown) [fluralaner, Fluralaner]
mortalities (Atlantic salmon; during the trial period or since its discontinuation): no mortalities | adverse effects on the salmon (Atlantic salmon; trial period): no obvious adverse effects | behaviour of the salmon (Atlantic salmon; trial period): normal | Average lice per fish (L. salmonis; [1]): 25.8 | Total lice (L. salmonis; [1]): 387 | Average lice per fish (L. salmonis; Tank B, 25 mg/ kg of body weight oral in feed, 11/08/2023 (after one week), control Tank A 21.9): 0.1 | Total lice (L. salmonis; Tank B, 25 mg/ kg of body weight oral in feed, 11/08/2023 (after one week), control Tank A 329): 1 | Average lice per fish (L. salmonis; [2]): 23.3 | Total lice (L. salmonis; [2]): 350 | Average lice per fish (L. salmonis; Tank C, 56 mg/ kg body weight oral in feed, 11/08/2023 (after one week), control Tank A 21.9): 0 | Total lice (L. salmonis; Tank C, 56 mg/ kg body weight oral in feed, 11/08/2023 (after one week), control Tank A 329): 0 | total lice numbers on the salmon that received the treatment (L. salmonis; after one week, control tank remained high): significantly reduced | efficacy in treating L. salmonis in Atlantic salmon (L. salmonis; preliminary study, oral in feed, 25 and 56 mg/kg): highly effective
